Legend:
[1] = system: Chloroquine-resistant malaria plasmodium Plasmodium chabaudi (AS strain: chloroquine-resistant (3CQ)); experiment: Test 1: resistance overcoming effect, in vivo test with chloroquine-resistant mouse malaria strain; settings: ICR male mice, days 0-3, counted on 5th day; for number of PRBCs per 10,000 red blood cells, Chloroquine 3 mg: test compound 50 mg/kg i.p. + chloroquine 3 mg/kg i.p.; for number of PRBCs per 10,000 red blood cells, Chloroquine 3 mg / number of PRBCs per 10,000 red blood cells, Chloroquine 2 mg: Control = chloroquine only; for number of PRBCs per 10,000 red blood cells, Chloroquine 0 mg: test compound 50 mg/kg i.p. + chloroquine 0 mg/kg i.p.; for number of PRBCs per 10,000 red blood cells, Chloroquine 2 mg: test compound 50 mg/kg i.p. + chloroquine 2 mg/kg i.p.
Method: With respect to Compounds 1 to 7, these invention compounds were tested for their resistance overcoming effect in an in vivo test making use of a chloroquine-resistant mouse malaria strain. The test was conducted following the following procedure.
Chloroquine-resistant malaria plasmodium Plasmodlium chabaudi (AS strain: chloroquine-resistant (3CQ)); and
Mice: ICR male mice of 4-5 weeks old (20 to 25 g)
(§1) • 1) Preparation of the compounds: Each test compound was dissolved beforehand in 1/10 volume of DMSO such that the dose of the compound to each mouse per administration would become a final concentration of 50 mg/kg/0.2 mL. The resulting solution was diluted with 0.85% physiological saline to provide a 10% DMSO suspension. • 2) Inoculation with the chloroquine-resistant malaria plasmodium, Plasmodium chabaudi (AS strain: chloroquine-resistant (3CQ): Parasitized red blood cells (PRBCs) (5×10^6 (the 6th power of 10) cells/0.2 mL) were also prepared with 0.85% physiological saline, and inoculated through the caudal vein of each mouse with a 26×½-gauge tuberculin needle. • 3) Administration of the compounds and chloroquine: Two hours after the inoculation with the plasmodium, each test compound (50 mg/kg/0.2 mL) was intraperitoneally administered with 21×½-gauge needles to three groups of mice per compound. Chloroquine solutions of three concentrations, which had been prepared with 0.85% physiological saline to give final concentrations of 0 mg/kg/0.1 mL, 2 mg/kg/0.1 mL and 3 mg/kg/0.1 mL, respectively, were then also administered intraperitoneally with 26×½-gauge tuberculin needles to the three groups of mice which had been administered with the compound. To three control groups, the three chloroquine solutions were only administered, respectively. The compound and chloroquine were administered four times in total, that is, on the 0th, 1st, 2nd and 3rd days after the inoculation with the plasmodium. • 4) Determination of effect: Every day after the inoculation with the plasmodium, the tail of each mouse was cut to a minimum at the tip thereof with scissors to cause bleeding, and a Giemsa staining specimen smeared with a thin film of the blood was prepared. On the 5th day, the number of PRBCs per 10,000 red blood cells was counted, and based on a comparison of the PRBC number with the corresponding number of the group administered only with chloroquine, the chloroquine resistance overcoming effect of the test compound was determined.

[2] = system: Chloroquine-resistant malaria plasmodium Plasmodium chabaudi (AS strain: chloroquine-resistant (3CQ)); experiment: Test 2: resistance overcoming effect of Compound 8, as Test 1 but determined on the fourth day; format: in vivo; settings: for number of PRBCs per 10,000 red blood cells, Chloroquine 2 mg: test compound 50 mg/kg i.p. + chloroquine 2 mg/kg i.p.; for number of PRBCs per 10,000 red blood cells, Chloroquine 2 mg / number of PRBCs per 10,000 red blood cells, Chloroquine 3 mg: Control = chloroquine only; for number of PRBCs per 10,000 red blood cells, Chloroquine 3 mg: test compound 50 mg/kg i.p. + chloroquine 3 mg/kg i.p.
Method: as §1
Resistance overcoming effect of Compound 8 was tested in a similar manner as in Test 1. The time of determination of the effect was set on the fourth day.

[3] = ICR male mice, days 0-3, determined on fourth day

Row | SMILES | number of PRBCs per 10,000 red blood cells, Chloroquine 3 mg [1] | melting point | number of PRBCs per 10,000 red blood cells, Chloroquine 0 mg [1] | number of PRBCs per 10,000 red blood cells, Chloroquine 2 mg [1] | number of PRBCs per 10,000 red blood cells, Chloroquine 0 mg ([2]; ICR male mice, test compound 50 mg/kg i.p. + chloroquine 0 mg/kg i.p., days 0-3, determined on fourth day) | number of PRBCs per 10,000 red blood cells, Chloroquine 2 mg [2, 3] | number of PRBCs per 10,000 red blood cells, Chloroquine 3 mg [2, 3] | chloroquine resistance overcoming effect (in words) ([2]; conclusion from Table 2)
1 | C=CC(CO)N1CCN(C2c3ccccc3CCc3ccccc32)CC1 (centres unmarked) [Compound 5, 1-Dibenzosuberanyl-4-(1-hydroxybutan-3-en-2-yl)piperazine] | 0 per 10,000 red blood cells | 123 °C |  |  |  |  |  | 
2 | OCC#CCN1CCN(C2c3ccccc3CCc3ccccc32)CC1 |  | 129 °C |  |  |  |  |  | 
3 | C=CC(O)CN1CCN(C2c3ccccc3CCc3ccccc32)CC1 (centres unmarked) [Compound 4, 1-Dibenzosuberanyl-4-(2-hydroxy-3-butenyl)-piperazine] | 0 per 10,000 red blood cells | 93 °C | 8000 per 10,000 red blood cells | 430 per 10,000 red blood cells |  |  |  | 
4 | C=CCCC(O)CN1CCN(C2c3ccccc3CCc3ccccc32)CC1 (centres unmarked) [Compound 3, 1-Dibenzosuberanyl-4-(2-hydroxy-5-hexenyl)-piperazine] | 292 per 10,000 red blood cells |  | 4500 per 10,000 red blood cells |  |  |  |  | 
5 | C=CCCCCCCC(O)CN1CCN(C2c3ccccc3CCc3ccccc32)CC1 (centres unmarked) [Compound 1, 1-Dibenzosuberanyl-4-(2-hydroxydecan-9-en-1-yl)piperazine] | 280 per 10,000 red blood cells |  | 4250 per 10,000 red blood cells | 3100 per 10,000 red blood cells |  |  |  | 
6 | CCCCCCCCC(O)CN1CCN(C2c3ccccc3CCc3ccccc32)CC1 (centres unmarked) [Compound 8, 1-Dibenzosuberanyl-4-(2-hydroxydecanyl)piperazine] |  |  |  |  | 7475 per 10,000 red blood cells | 4875 per 10,000 red blood cells | 3025 per 10,000 red blood cells | overcoming of chloroquine resistance
7 | C=CCCCCC(O)CN1CCN(C2c3ccccc3CCc3ccccc32)CC1 (centres unmarked) [Compound 2, 1-Dibenzosuberanyl-4-(2-hydroxy-7-octenyl)-piperazine] | 0 per 10,000 red blood cells |  | 8450 per 10,000 red blood cells | 0 per 10,000 red blood cells |  |  |  | 
8 | CCN(CC)CCCC(C)Nc1ccnc2cc(Cl)ccc12 (centres unmarked) [Control, chloroquine, reference compound] | 3750 per 10,000 red blood cells |  |  | 4900 per 10,000 red blood cells |  | 4525 per 10,000 red blood cells | 3600 per 10,000 red blood cells | 

— US6881841B2, “Dibenzosuberanyl piperazine derivatives and drug-resistance overcoming agents containing the derivatives” (priority 2000, dated 2005)
